The target of this experiment is Voltage-gated inwardly rectifying potassium channel KCNH2 (Homo sapiens) (UniProt Q12809). In words: off-target hERG block by TASK1 inhibitor candidates – FluxOR thallium flux, concentration-response, CHO cells, selectivity assay for TASK1 inhibitor project, SAR follow-up (AID 652194). To be noted: hERG-expressing cells, FluxOR thallium flux fluorescence; for flux ratio, lower = inhibition: at 30 µM (top of the series). Background: Block of hERG is tested as a sign of cardiac risk.

These results are taken from PubChem BioAssay AID652194 (Johns Hopkins Ion Channel Center, 2013).

Calls of active or inactive are those of the source.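 The calls were made as follows: active = hERG flux cut by over 30% at some tested dose, with a fitted dose response curve; inactive = no hERG inhibition at any dose or no curve.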

Sequence of Voltage-gated inwardly rectifying potassium channel KCNH2 (Homo sapiens) (Q12809 whole entry, looked up): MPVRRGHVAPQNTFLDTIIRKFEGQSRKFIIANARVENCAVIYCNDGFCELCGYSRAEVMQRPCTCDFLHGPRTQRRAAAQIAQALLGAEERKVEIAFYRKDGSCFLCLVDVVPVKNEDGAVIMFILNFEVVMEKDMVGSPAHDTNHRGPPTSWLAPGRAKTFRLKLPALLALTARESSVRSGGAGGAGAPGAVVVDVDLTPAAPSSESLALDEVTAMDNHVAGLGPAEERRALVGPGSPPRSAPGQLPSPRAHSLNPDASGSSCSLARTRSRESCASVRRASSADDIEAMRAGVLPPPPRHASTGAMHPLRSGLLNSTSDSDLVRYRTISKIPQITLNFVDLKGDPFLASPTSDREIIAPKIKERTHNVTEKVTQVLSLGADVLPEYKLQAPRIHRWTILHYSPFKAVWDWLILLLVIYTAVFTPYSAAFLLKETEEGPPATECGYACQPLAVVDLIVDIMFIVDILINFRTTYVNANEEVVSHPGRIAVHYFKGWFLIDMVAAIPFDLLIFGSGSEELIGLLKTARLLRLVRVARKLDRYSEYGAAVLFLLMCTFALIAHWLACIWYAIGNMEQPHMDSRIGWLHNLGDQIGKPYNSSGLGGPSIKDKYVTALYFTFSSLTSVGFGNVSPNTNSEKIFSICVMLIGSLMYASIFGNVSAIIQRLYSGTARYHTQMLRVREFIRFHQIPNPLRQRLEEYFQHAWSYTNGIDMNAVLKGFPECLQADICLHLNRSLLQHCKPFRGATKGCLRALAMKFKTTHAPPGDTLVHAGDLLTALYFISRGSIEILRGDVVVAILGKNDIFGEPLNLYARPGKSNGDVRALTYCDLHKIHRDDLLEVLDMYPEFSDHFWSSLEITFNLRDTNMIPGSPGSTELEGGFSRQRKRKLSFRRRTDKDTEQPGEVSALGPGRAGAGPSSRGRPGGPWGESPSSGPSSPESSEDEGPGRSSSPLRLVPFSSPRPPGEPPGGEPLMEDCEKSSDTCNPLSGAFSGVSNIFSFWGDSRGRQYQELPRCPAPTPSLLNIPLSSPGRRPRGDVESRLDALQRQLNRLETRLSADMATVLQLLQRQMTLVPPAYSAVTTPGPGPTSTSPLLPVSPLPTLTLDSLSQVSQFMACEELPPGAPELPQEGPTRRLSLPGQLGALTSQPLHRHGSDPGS

As for `O=C(Nc1ccccc1Cl)c1cccc(NC(=O)C2CCCC2)c1`, the “flux ratio, lower = inhibition” value is “inactive”.

For the compound `CCOc1ccc(NC(=O)c2cccc(NC(=O)C3CCCC3)c2)cc1`, the “flux ratio, lower = inhibition” value was “inactive”.

As to `Cc1cccc(C(=O)Nc2cccc(C(=O)Nc3ccccc3)c2)c1`, the “flux ratio, lower = inhibition” value was “inactive”.

Regarding `COc1cnccc1C(=O)Nc1cccc(NC(=O)c2cccc(C)c2)c1`, the “flux ratio, lower = inhibition” value is “inactive”.

On to `CCOc1ccccc1NC(=O)c1cccc(NC(=O)c2cccc(C(F)(F)F)c2)c1`, for which the “flux ratio, lower = inhibition” value was “inactive”.

As to `Cc1cccc(C(=O)Nc2cccc(NC(=O)C3CCCCC3)c2)c1`, the “flux ratio, lower = inhibition” value was “inactive”.

For `O=C(Nc1cccc(NC(=O)c2ccccc2)c1)c1ccccc1`, the “flux ratio, lower = inhibition” value was “inactive”.

As a reminder, the IC50 is the concentration needed to halve the response being measured. `Cc1cccc(C(=O)Nc2cccc(NC(=O)c3cccc(C)c3)c2)c1`: the concentration for half-maximal inhibition (IC50) was 12.4 µM.

As to `Cc1cccc(C(=O)Nc2cccc(NC(=O)c3ccccc3OC(F)(F)F)c2)c1`, the “flux ratio, lower = inhibition” value was “inactive”.

As to `CC(C)(C)c1ccc(C(=O)Nc2cccc(NC(=O)c3ccccc3)c2)cc1`, the “flux ratio, lower = inhibition” value was “inactive”.

In the case of `CCOc1ccccc1NC(=O)c1cccc(NC(=O)c2cccc(Cl)c2)c1`, the “flux ratio, lower = inhibition” value is “inactive”.

With `O=C(Nc1cccc(NC(=O)c2cccc(Cl)c2)c1)c1ccccc1`, the “flux ratio, lower = inhibition” value is “inactive”.
